Experiments:
[1] = target: CDK12/CycK complex (Homo sapiens, UniProt Q9NYV4); assay: Measurement of CDK12 inhibitory activity by binding assay (BODIPY-FL labeled AT-7519 high concentration conditions, 1320 nM); conditions: inhibitory rate against CDK12 at 1 μM test compound, 1320 nM BODIPY-FL-labeled AT-7519, 8 nM CDK12/CycK
Method: (4) Measurement of CDK12 Inhibitory Activity by Binding Assay (BODIPY-FL Labeled AT-7519 High Concentration Conditions)
His-tagged CDK12/CycK complex was blended with a binding assay buffer supplemented with BODIPY-FL labeled AT-7519, terbium-labeled streptavidin and biotin-labeled anti-histidine antibody. This solution was added to an assay plate containing a test compound dispensed therein, and the mixture was left standing for 120 min at room temperature. The final concentration of CDK12/CycK complex, BODIPY-FL-labeled AT-7519, terbium-labeled streptavidin and biotin-labeled anti-histidine antibody was set to 8 nM, 1320 nM, 0.2 nM, and 0.4 nM, respectively. The fluorescence intensity derived from terbium and BODIPY-FL was measured using Envision. The signal value of each well was determined using the TR-FRET ratio calculated by the following formula. TR-FRET ratio=(fluorescence value of BODIPY-FL)÷(fluorescence value of terbium)
The inhibitory rate (%) of the test compound against CDK12 was calculated by the following formula. Inhibitory rate (%)=(1−(TR-FRET ratio of test compound−blank)÷(control−blank))×100
The TR-FRET ratio of the CDK12 enzyme reaction mixture under compound non-addition conditions is indicated as control, and the TR-FRET ratio under 30 μM AT-7519 addition conditions is indicated as blank.
The inhibitory rate of the test compound against CDK12 at 1 μM is shown below.

[2] = tested on: A2780 cells; assay: In vitro proliferation suppression test (CellTiter-Glo); assay type: cell-based, human; conditions: A2780 cell proliferation inhibitory rate at 1 μM test compound, three days; for inhibition at 1 µM: Homo sapiens, 72 h
Method: Experimental Example 4: In Vitro Proliferation Suppression Test
The proliferation suppressive activity of compound in A2780 cells was evaluated by the following method.
A2780 cells were seeded in a 384-well white plate at a cell density of 1,000 cells/40 μL/well or a 96-well white plate at a cell density of 1,000 cells/90 μL/well using an assay medium (RPMI1640 medium containing 10% fetal bovine serum (FUJIFILM Wako Pure Chemical Corporation)) and incubated at 37° C. in 5% CO2.
The next day, a test compound dissolved in dimethyl sulfoxide (DMSO) was diluted with an assay medium, the obtained compound solution was added by 40 μL/well or 10 μL/well to each well of the plate containing A2780 cells and the mixture was incubated (test compound addition group). In addition, a similar reaction was performed without adding the test compound (test compound non-addition group).
Three days later, 80 μL or 100 μL of CellTiter-Glo reagent (Promega) was added, and the mixture was stirred for 10 min. Thereafter, the luminescence of each well was measured by ARVO-MX multilabel counter (Perkin Elmer Inc.).
The proliferation inhibitory rate (%) of each test compound against A2780 cells was calculated by the following calculation formula. Proliferation inhibitory rate (%)=(1−luminescence of test compound addition group÷luminescence of test compound non-addition group)×100
The A2780 cell proliferation inhibitory rate (%) of 1 μM test compound is shown below.

Sequence of CDK12/CycK complex (Q9NYV4 whole entry, species assumed): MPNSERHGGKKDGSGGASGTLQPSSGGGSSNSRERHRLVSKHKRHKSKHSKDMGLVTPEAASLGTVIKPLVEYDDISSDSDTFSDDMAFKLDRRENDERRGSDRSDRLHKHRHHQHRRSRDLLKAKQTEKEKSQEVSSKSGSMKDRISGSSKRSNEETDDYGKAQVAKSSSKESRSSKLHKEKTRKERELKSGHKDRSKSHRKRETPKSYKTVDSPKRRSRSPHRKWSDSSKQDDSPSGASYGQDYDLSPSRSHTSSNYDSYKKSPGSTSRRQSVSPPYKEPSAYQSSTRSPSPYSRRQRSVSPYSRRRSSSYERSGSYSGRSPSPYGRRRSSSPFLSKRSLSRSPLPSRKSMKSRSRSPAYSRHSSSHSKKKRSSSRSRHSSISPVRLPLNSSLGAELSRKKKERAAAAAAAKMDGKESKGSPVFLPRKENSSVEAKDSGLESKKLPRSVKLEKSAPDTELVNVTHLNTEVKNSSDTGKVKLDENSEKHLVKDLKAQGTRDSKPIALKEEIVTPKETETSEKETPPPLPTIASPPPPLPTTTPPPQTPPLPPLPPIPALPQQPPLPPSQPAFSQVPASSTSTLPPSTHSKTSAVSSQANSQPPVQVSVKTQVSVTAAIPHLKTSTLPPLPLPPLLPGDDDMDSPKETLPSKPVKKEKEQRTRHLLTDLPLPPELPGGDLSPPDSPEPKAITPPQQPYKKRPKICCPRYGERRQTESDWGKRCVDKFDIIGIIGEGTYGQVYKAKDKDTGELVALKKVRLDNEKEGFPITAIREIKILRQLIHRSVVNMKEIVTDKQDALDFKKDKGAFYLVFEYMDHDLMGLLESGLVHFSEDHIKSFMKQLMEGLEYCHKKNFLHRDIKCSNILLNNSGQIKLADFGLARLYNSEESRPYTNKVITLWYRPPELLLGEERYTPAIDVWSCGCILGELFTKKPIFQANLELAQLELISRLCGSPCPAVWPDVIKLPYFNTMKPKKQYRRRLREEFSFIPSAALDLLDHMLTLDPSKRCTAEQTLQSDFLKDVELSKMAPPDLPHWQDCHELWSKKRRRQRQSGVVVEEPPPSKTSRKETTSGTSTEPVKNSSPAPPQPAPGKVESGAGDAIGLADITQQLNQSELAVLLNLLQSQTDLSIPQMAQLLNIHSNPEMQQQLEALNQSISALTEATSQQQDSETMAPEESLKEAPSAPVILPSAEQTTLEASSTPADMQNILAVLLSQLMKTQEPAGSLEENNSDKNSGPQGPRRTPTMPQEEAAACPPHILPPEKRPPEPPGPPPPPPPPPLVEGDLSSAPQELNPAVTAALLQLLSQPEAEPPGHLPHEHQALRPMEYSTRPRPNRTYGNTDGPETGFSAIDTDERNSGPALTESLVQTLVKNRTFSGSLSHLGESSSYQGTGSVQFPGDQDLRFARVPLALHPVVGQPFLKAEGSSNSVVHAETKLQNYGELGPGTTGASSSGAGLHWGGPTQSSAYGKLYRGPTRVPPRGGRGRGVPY
Sequence of CDK12/CycK complex (O75909 whole entry partner, species assumed): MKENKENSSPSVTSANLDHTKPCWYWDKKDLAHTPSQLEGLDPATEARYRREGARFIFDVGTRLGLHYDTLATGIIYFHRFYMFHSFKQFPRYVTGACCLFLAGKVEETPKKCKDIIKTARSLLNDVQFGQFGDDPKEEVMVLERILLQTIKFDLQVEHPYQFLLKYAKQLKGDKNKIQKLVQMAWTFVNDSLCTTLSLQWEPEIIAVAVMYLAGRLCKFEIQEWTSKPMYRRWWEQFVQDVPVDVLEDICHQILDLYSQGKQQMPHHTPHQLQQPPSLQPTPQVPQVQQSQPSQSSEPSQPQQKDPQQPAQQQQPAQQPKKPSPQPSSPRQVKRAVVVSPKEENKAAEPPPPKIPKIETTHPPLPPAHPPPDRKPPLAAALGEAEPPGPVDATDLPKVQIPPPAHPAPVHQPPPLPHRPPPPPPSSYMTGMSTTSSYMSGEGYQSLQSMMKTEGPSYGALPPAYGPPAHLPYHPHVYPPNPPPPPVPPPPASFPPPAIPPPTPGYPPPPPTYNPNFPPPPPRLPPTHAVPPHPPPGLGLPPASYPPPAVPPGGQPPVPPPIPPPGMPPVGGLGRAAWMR

SMILES | inhibition at 1 µM [1] | inhibition at 1 µM [2] | 1 μM inhibitory rate (%) [1] | 1 μM inhibitory rate (%) [2]
COc1ncc(-c2cnc(N(C(=O)OCCN(C)C)[C@H]3CC[C@H](Nc4ncc(C(F)(F)F)c(-c5cncc(S(C)(=O)=O)c5)n4)CC3)cn2)cn1 [Example 767, 2-(dimethylamino)ethyl (trans-4-((4-(5-(methanesulfonyl)pyridin-3-yl)-5-(trifluoromethyl)pyrimidin-2-yl)amino)cyclohexyl) (5-(2-methoxypyrimidin-5-yl)pyrazin-2-yl)carbamate] | 102% | 99% | – | –
CCCC(=O)N(c1cnc(-c2cnc(OC)nc2)cn1)[C@H]1CC[C@H](Nc2ncc(C(F)(F)F)c(-c3cncc(S(C)(=O)=O)c3)n2)CC1 [Example 798, N-(trans-4-((4-(5-(methanesulfonyl)pyridin-3-yl)-5-(trifluoromethyl)pyrimidin-2-yl)amino)cyclohexyl)-N-(5-(2-methoxypyrimidin-5-yl)pyrazin-2-yl)butanamide] | 92% | 99% | – | –
CCNC(=O)N(c1cnc(-c2cnc(OC)nc2)cn1)[C@H]1CC[C@H](Nc2ncc(C(F)(F)F)c(-c3cncc(S(C)(=O)=O)c3)n2)CC1 [Example 799, 3-ethyl-1-(trans-4-((4-(5-(methanesulfonyl)pyridin-3-yl)-5-(trifluoromethyl)pyrimidin-2-yl)amino)cyclohexyl)-1-(5-(2-methoxypyrimidin-5-yl)pyrazin-2-yl)urea] | 96% | 99% | – | –
COc1ncc(-c2cnc(N(C(=O)NCC(C)(C)O)[C@H]3CC[C@H](Nc4ncc(C(F)(F)F)c(-c5ccn(C(F)F)n5)n4)CC3)cn2)cn1 [Example 804, 1-(trans-4-((4-(1-(difluoromethyl)-1H-pyrazol-3-yl)-5-(trifluoromethyl)pyrimidin-2-yl)amino)cyclohexyl)-3-(2-hydroxy-2-methylpropyl)-1-(5-(2-methoxypyrimidin-5-yl)pyrazin-2-yl)urea] | 94% | 96% | – | –
Cn1cc(-c2cnc(N(C(=O)OCC(F)F)[C@H]3CC[C@H](Nc4ncc(C(F)(F)F)c(-c5cncc(S(C)(=O)=O)c5)n4)CC3)cn2)cn1 [Example 820, 2,2-difluoroethyl (trans-4-((4-(5-(methanesulfonyl)pyridin-3-yl)-5-(trifluoromethyl)pyrimidin-2-yl)amino)cyclohexyl) (5-(1-methyl-1H-pyrazol-4-yl)pyrazin-2-yl)carbamate] | 99% | 99% | – | –
COc1ncc(-c2cnc(N(C(=O)CCC(F)F)[C@H]3CC[C@H](Nc4ncc(C(F)(F)F)c(-c5cncc(S(C)(=O)=O)c5)n4)CC3)cn2)cn1 [Example 826, 4,4-difluoro-N-(trans-4-((4-(5-(methanesulfonyl)pyridin-3-yl)-5-(trifluoromethyl)pyrimidin-2-yl)amino)cyclohexyl)-N-(5-(2-methoxypyrimidin-5-yl)pyrazin-2-yl)butanamide] | 106% | 98% | – | –
CCOCC(=O)N(c1cnc(-c2cnc(OC)nc2)cn1)[C@H]1CC[C@H](Nc2ncc(C(F)(F)F)c(-c3cncc(S(C)(=O)=O)c3)n2)CC1 [Example 827, 2-ethoxy-N-(trans-4-((4-(5-(methanesulfonyl)pyridin-3-yl)-5-(trifluoromethyl)pyrimidin-2-yl)amino)cyclohexyl)-N-(5-(2-methoxypyrimidin-5-yl)pyrazin-2-yl)acetamide] | 109% | 99% | – | –
CCOCC(=O)N(c1cnc(-c2cnn(C)c2)cn1)[C@H]1CC[C@H](Nc2ncc(C(F)(F)F)c(-c3cncc(S(C)(=O)=O)c3)n2)CC1 [Example 831, 2-ethoxy-N-(trans-4-((4-(5-(methanesulfonyl)pyridin-3-yl)-5-(trifluoromethyl)pyrimidin-2-yl)amino)cyclohexyl)-N-(5-(1-methyl-1H-pyrazol-4-yl)pyrazin-2-yl)acetamide] | 107% | 99% | – | –
COc1ncc(-c2cnc(N(C(=O)OCC(C)(C)O)[C@H]3CC[C@H](Nc4ncc(C(F)(F)F)c(-c5cncc(S(C)(=O)=O)c5)n4)CC3)cn2)cn1 [Example 836, 2-hydroxy-2-methylpropyl (trans-4-((4-(5-(methanesulfonyl)pyridin-3-yl)-5-(trifluoromethyl)pyrimidin-2-yl)amino)cyclohexyl) (5-(2-methoxypyrimidin-5-yl)pyrazin-2-yl)carbamate] | 106% | 99% | – | –
Cn1cc(-c2cnc(N(C(=O)OCC(C)(C)O)[C@H]3CC[C@H](Nc4ncc(C(F)(F)F)c(-c5cncc(S(C)(=O)=O)c5)n4)CC3)cn2)cn1 [Example 838, 2-hydroxy-2-methylpropyl (trans-4-((4-(5-(methanesulfonyl)pyridin-3-yl)-5-(trifluoromethyl)pyrimidin-2-yl)amino)cyclohexyl) (5-(1-methyl-1H-pyrazol-4-yl)pyrazin-2-yl)carbamate] | 103% | 98% | – | –
COc1ncc(-c2cnc(N(C(=O)OCC(C)(C)O)[C@H]3CC[C@H](Nc4ncc(C(F)(F)F)c(-c5n[nH]cc5Cl)n4)CC3)cn2)cn1 [Example 841, 2-hydroxy-2-methylpropyl (trans-4-((4-(4-chloro-1H-pyrazol-3-yl)-5-(trifluoromethyl)pyrimidin-2-yl)amino)cyclohexyl) (5-(2-methoxypyrimidin-5-yl)pyrazin-2-yl)carbamate] | 79% | 99% | – | –
COc1ncc(-c2ccc(N(C(=O)OCCN(C)C)[C@H]3CC[C@H](Nc4ncc(C(F)(F)F)c(-c5cncc(S(C)(=O)=O)c5)n4)CC3)nc2)cn1 [Example 848, 2-(dimethylamino)ethyl (trans-4-((4-(5-(methanesulfonyl)pyridin-3-yl)-5-(trifluoromethyl)pyrimidin-2-yl)amino)cyclohexyl) (5-(2-methoxypyrimidin-5-yl)pyridin-2-yl)carbamate] | – | – | 108% | 99%
COc1ncc(-c2ccc(N(C(=O)NCC(C)(C)O)[C@H]3CC[C@H](Nc4ncc(C(F)(F)F)c(-c5ccn(C(F)F)n5)n4)CC3)nc2)cn1 [Example 849, 1-(trans-4-((4-(1-(difluoromethyl)-1H-pyrazol-3-yl)-5-(trifluoromethyl)pyrimidin-2-yl)amino)cyclohexyl)-3-(2-hydroxy-2-methylpropyl)-1-(5-(2-methoxypyrimidin-5-yl)pyridin-2-yl)urea] | 110% | 97% | – | –
CCCC(=O)N(c1ccc(-c2cnc(OC)nc2)cn1)[C@H]1CC[C@H](Nc2ncc(C(F)(F)F)c(-c3cncc(S(C)(=O)=O)c3)n2)CC1 [Example 858, N-(trans-4-((4-(5-(methanesulfonyl)pyridin-3-yl)-5-(trifluoromethyl)pyrimidin-2-yl)amino)cyclohexyl)-N-(5-(2-methoxypyrimidin-5-yl)pyridin-2-yl)butanamide] | 109% | 99% | – | –

Reference: patent US11584737B2, “Heterocyclic compound” (TAKEDA PHARMACEUTICAL COMPANY LIMITED, priority 2018, dated 2023)
